The text below walks through data of patent US11117900B2 (Vertex Pharmaceuticals Incorporated, priority 2012, dated 2021).

In this test the test system is HCT116 colorectal cancer cells. Kind of test: Cisplatin sensitization assay (96 h MTS cell viability).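 Also: compound concentration needed to lower the IC50 of Cisplatin alone by a set fold.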 The class given is cell-based. To be noted: Cisplatin sensitization value. The gist of the method: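 The MTS viability read, after 1 h with reagent, followed 96 h of co-treatment at 37° C. in 5% CO2. Both compound and cisplatin were titrated 2-fold from a 10 μM top final concentration in a complete concentration matrix on HCT116 cells. Scores +++/++/+ reflect cisplatin sensitization value ranges.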
Consider `CN1CC(C(=O)N2CCN(c3c(F)cncc3NC(=O)c3c(N)nn4cc(F)cnc34)CC2)C1` [I-N-194], for which the “Cisplatin Sensitization Assay” value is recorded as “+++ (Compounds with a Cisplatin sensitization value of <0.02 μM are marked with “+++.”)”.

Take `Nc1nn2cc(Cl)cnc2c1C(=O)Nc1cnccc1Oc1cccnc1` [I-O-70, 2-amino-6-chloro-N-(4-(pyridin-3-yloxy)pyridin-3-yl)pyrazolo[1,5-a]pyrimidine-3-carboxamide]: the “Cisplatin Sensitization Assay” value is reported as “+++ (Compounds with a Cisplatin sensitization value of <0.02 μM are marked with “+++.”)”.

For the compound `Nc1nn2cc(F)cnc2c1C(=O)Nc1cncc(F)c1N1CCN(C(=O)CN2CCCC2)CC1` [I-N-187, 2-amino-6-fluoro-N-(5-fluoro-4-(4-(2-(pyrrolidin-1-yl)acetyl)piperazin-1-yl)pyridin-3-yl)pyrazolo[1,5-a]pyrimidine-3-carboxamide], the “Cisplatin Sensitization Assay” value is “+++ (Compounds with a Cisplatin sensitization value of <0.02 μM are marked with “+++.”)”.

As to `CN(C)CCN(C)C(=O)C1CCN(c2c(F)cncc2NC(=O)c2c(N)nn3cc(F)cnc23)CC1` [I-G-31, 2-amino-N-(4-(4-((2-(dimethylamino)ethyl)(methyl)carbamoyl)piperidin-1-yl)-5-fluoropyridin-3-yl)-6-fluoropyrazolo[1,5-a]pyrimidine-3-carboxamide], the “Cisplatin Sensitization Assay” value is given as “+++ (Compounds with a Cisplatin sensitization value of <0.02 μM are marked with “+++.”)”.

For the compound `Nc1nn2cc(F)cnc2c1C(=O)Nc1cncc(F)c1N1CCN(C(=O)C2CC2)CC1` [I-N-276, 2-amino-N-(4-(4-(cyclopropanecarbonyl)piperazin-1-yl)-5-fluoropyridin-3-yl)-6-fluoropyrazolo[1,5-a]pyrimidine-3-carboxamide], the “Cisplatin Sensitization Assay” value is on record as “+++ (Compounds with a Cisplatin sensitization value of <0.02 μM are marked with “+++.”)”.

Regarding `C[C@H]1CN(C2COC2)CCN1c1ccncc1NC(=O)c1c(N)nn2cc(F)cnc12` [I-N-24, (S)-2-amino-6-fluoro-N-(4-(2-methyl-4-(oxetan-3-yl)piperazin-1-yl)pyridin-3-yl)pyrazolo[1,5-a]pyrimidine-3-carboxamide], the “Cisplatin Sensitization Assay” value is “+++ (Compounds with a Cisplatin sensitization value of <0.02 μM are marked with “+++.”)”.

`CN1CCC(Oc2c(F)cncc2NC(=O)c2c(N)nn3cc(F)cnc23)CC1` [I-O-89, 2-amino-6-fluoro-N-(5-fluoro-4-((1-methylpiperidin-4-yl)oxy)pyridin-3-yl)pyrazolo[1,5-a]pyrimidine-3-carboxamide]: the “Cisplatin Sensitization Assay” value is reported as “++ (Compounds with a Cisplatin sensitization value >0.02 μM but <0.2 μM are marked with “++.”)”.

For the compound `Nc1nn2cc(F)cnc2c1C(=O)Nc1cncc(F)c1N1CCC(C(=O)NCCN2CCC2)CC1` [I-G-42, 2-amino-N-(4-(4-((2-(azetidin-1-yl)ethyl)carbamoyl)piperidin-1-yl)-5-fluoropyridin-3-yl)-6-fluoropyrazolo[1,5-a]pyrimidine-3-carboxamide], the “Cisplatin Sensitization Assay” value is “+++ (Compounds with a Cisplatin sensitization value of <0.02 μM are marked with “+++.”)”.

On to `Nc1nn2cc(F)cnc2c1C(=O)Nc1cncc(F)c1N1CCC(C(=O)N2CCC2)CC1` [I-G-8, 2-amino-N-(4-(4-(azetidine-1-carbonyl)piperidin-1-yl)-5-fluoropyridin-3-yl)-6-fluoropyrazolo[1,5-a]pyrimidine-3-carboxamide], for which the “Cisplatin Sensitization Assay” value is “+++ (Compounds with a Cisplatin sensitization value of <0.02 μM are marked with “+++.”)”.

As for `N#CCc1cnc2c(C(=O)Nc3cnccc3OC3CCC3)c(N)nn2c1` [I-O-36, 2-amino-6-(cyanomethyl)-N-(4-cyclobutoxypyridin-3-yl)pyrazolo[1,5-a]pyrimidine-3-carboxamide], the “Cisplatin Sensitization Assay” value is “+++ (Compounds with a Cisplatin sensitization value of <0.02 μM are marked with “+++.”)”.

As to `CO[C@H]1CCN(C(=O)C2CCN(c3ccncc3NC(=O)c3c(N)nn4cc(F)cnc34)CC2)C1` [I-G-94, (S)-2-amino-6-fluoro-N-(4-(4-(3-methoxypyrrolidine-1-carbonyl)piperidin-1-yl)pyridin-3-yl)pyrazolo[1,5-a]pyrimidine-3-carboxamide], the “Cisplatin Sensitization Assay” value was “+++ (Compounds with a Cisplatin sensitization value of <0.02 μM are marked with “+++.”)”.

Turning to `CN1CCN(C(=O)c2ccc(-c3c(F)cncc3NC(=O)c3c(N)nn4cc(F)cnc34)cc2)CC1` [I-C-43, 2-amino-6-fluoro-N-(5-fluoro-4-(4-(4-methylpiperazine-1-carbonyl)phenyl)pyridin-3-yl)pyrazolo[1,5-a]pyrimidine-3-carboxamide], the “Cisplatin Sensitization Assay” value is recorded as “+++ (Compounds with a Cisplatin sensitization value of <0.02 μM are marked with “+++.”)”.

As to `Nc1nn2cc(F)cnc2c1C(=O)Nc1cncc(F)c1N1CCC2(CC1)COC2` [I-N-239, 2-amino-6-fluoro-N-(5-fluoro-4-(2-oxa-7-azaspiro[3.5]nonan-7-yl)pyridin-3-yl)pyrazolo[1,5-a]pyrimidine-3-carboxamide], the “Cisplatin Sensitization Assay” value is on record as “+++ (Compounds with a Cisplatin sensitization value of <0.02 μM are marked with “+++.”)”.

With `Nc1nn2cc(F)cnc2c1C(=O)Nc1cnccc1N1CCN(C2CCOCC2)CC1` [I-N-11, 2-amino-6-fluoro-N-(4-(4-(tetrahydro-2H-pyran-4-yl)piperazin-1-yl)pyridin-3-yl)pyrazolo[1,5-a]pyrimidine-3-carboxamide], the “Cisplatin Sensitization Assay” value is “++ (Compounds with a Cisplatin sensitization value >0.02 μM but <0.2 μM are marked with “++.”)”.

For `COc1cc(Cl)ncc1NC(=O)c1c(N)nn2cc(CC#N)cnc12` [I-O-27, 2-amino-N-(6-chloro-4-methoxypyridin-3-yl)-6-(cyanomethyl)pyrazolo[1,5-a]pyrimidine-3-carboxamide], the “Cisplatin Sensitization Assay” value is “++ (Compounds with a Cisplatin sensitization value >0.02 μM but <0.2 μM are marked with “++.”)”.

On to `CN1CCOC2(CCN(c3c(F)cncc3NC(=O)c3c(N)nn4cc(F)cnc34)CC2)C1` [I-N-272, 2-amino-6-fluoro-N-(5-fluoro-4-(4-methyl-1-oxa-4,9-diazaspiro[5.5]undecan-9-yl)pyridin-3-yl)pyrazolo[1,5-a]pyrimidine-3-carboxamide], for which the “Cisplatin Sensitization Assay” value is listed as “+++ (Compounds with a Cisplatin sensitization value of <0.02 μM are marked with “+++.”)”.

`CC1CN(c2ccncc2NC(=O)c2c(N)nn3cc(Cl)cnc23)CCN1C` (centres unmarked) [I-N-54, 2-amino-6-chloro-N-(4-(3,4-dimethylpiperazin-1-yl)pyridin-3-yl)pyrazolo[1,5-a]pyrimidine-3-carboxamide]: the “Cisplatin Sensitization Assay” value is recorded as “+++ (Compounds with a Cisplatin sensitization value of <0.02 μM are marked with “+++.”)”.

`Cc1nccnc1-c1ccncc1NC(=O)c1c(N)nn2cc(F)cnc12` [I-C-62, 2-amino-6-fluoro-N-(4-(3-methylpyrazin-2-yl)pyridin-3-yl)pyrazolo[1,5-a]pyrimidine-3-carboxamide]: the “Cisplatin Sensitization Assay” value is “++ (Compounds with a Cisplatin sensitization value >0.02 μM but <0.2 μM are marked with “++.”)”.

Consider `Nc1nn2cc(F)cnc2c1C(=O)Nc1cncc(F)c1C1CCN(C2COC2)CC1` [I-C-13, 2-amino-6-fluoro-N-(5-fluoro-4-(1-(oxetan-3-yl)piperidin-4-yl)pyridin-3-yl)pyrazolo[1,5-a]pyrimidine-3-carboxamide], for which the “Cisplatin Sensitization Assay” value is on record as “++ (Compounds with a Cisplatin sensitization value >0.02 μM but <0.2 μM are marked with “++.”)”.

For the compound `C[N+]1([O-])CCc2c(cncc2NC(=O)c2c(N)nn3cc(F)cnc23)C1` (centres unmarked) [I-C-9, 5-(2-amino-6-fluoropyrazolo[1,5-a]pyrimidine-3-carboxamido)-2-methyl-1,2,3,4-tetrahydro-2,7-naphthyridine 2-oxide], the “Cisplatin Sensitization Assay” value is listed as “+ (Compounds with a Cisplatin sensitization value >0.2 μM but <5 μM are marked with “+.”)”.

`Nc1nn2cc(F)cnc2c1C(=O)Nc1cncc(F)c1N1CCN([C@H]2CCOC2)CC1` [I-N-125, (S)-2-amino-6-fluoro-N-(5-fluoro-4-(4-(tetrahydrofuran-3-yl)piperazin-1-yl)pyridin-3-yl)pyrazolo[1,5-a]pyrimidine-3-carboxamide]: the “Cisplatin Sensitization Assay” value was “+++ (Compounds with a Cisplatin sensitization value of <0.02 μM are marked with “+++.”)”.

`Cn1ccc(-c2ccncc2NC(=O)c2c(N)nn3cc(F)cnc23)n1` [I-C-68, 2-amino-6-fluoro-N-(4-(1-methyl-1H-pyrazol-3-yl)pyridin-3-yl)pyrazolo[1,5-a]pyrimidine-3-carboxamide]: the “Cisplatin Sensitization Assay” value is “+ (Compounds with a Cisplatin sensitization value >0.2 μM but <5 μM are marked with “+.”)”.

`CN1CCN(c2ccncc2NC(=O)c2c(N)nn3cc(Cl)cnc23)CC1` [I-N-59, 2-amino-6-chloro-N-(4-(4-methylpiperazin-1-yl)pyridin-3-yl)pyrazolo[1,5-a]pyrimidine-3-carboxamide]: the “Cisplatin Sensitization Assay” value is listed as “++ (Compounds with a Cisplatin sensitization value >0.02 μM but <0.2 μM are marked with “++.”)”.

Consider `CN1CCN(S(=O)(=O)C2CCN(c3c(F)cncc3NC(=O)c3c(N)nn4cc(F)cnc34)CC2)CC1` [I-N-166, 2-amino-6-fluoro-N-(5-fluoro-4-(4-((4-methylpiperazin-1-yl)sulfonyl)piperidin-1-yl)pyridin-3-yl)pyrazolo[1,5-a]pyrimidine-3-carboxamide], for which the “Cisplatin Sensitization Assay” value is listed as “+++ (Compounds with a Cisplatin sensitization value of <0.02 μM are marked with “+++.”)”.

With `CN1CCN(CC2CCN(c3c(F)cncc3NC(=O)c3c(N)nn4cc(F)cnc34)CC2)C(=O)C1` [I-N-193, 2-amino-6-fluoro-N-(5-fluoro-4-(4-((4-methyl-2-oxopiperazin-1-yl)methyl)piperidin-1-yl)pyridin-3-yl)pyrazolo[1,5-a]pyrimidine-3-carboxamide], the “Cisplatin Sensitization Assay” value is on record as “+++ (Compounds with a Cisplatin sensitization value of <0.02 μM are marked with “+++.”)”.

Turning to `Nc1nn2cc(F)cnc2c1C(=O)Nc1cnccc1-c1ccnnc1` [I-C-26, 2-amino-6-fluoro-N-(4-(pyridazin-4-yl)pyridin-3-yl)pyrazolo[1,5-a]pyrimidine-3-carboxamide], the “Cisplatin Sensitization Assay” value was “++ (Compounds with a Cisplatin sensitization value >0.02 μM but <0.2 μM are marked with “++.”)”.
